In US20230313318A1, “MICR[…] METHOD OF USE THEREOF” (priority 2022, published 2023):

System: D. immitis GA III (susceptible isolate)
Design: species or system Dirofilaria immitis
Conditions: in vivo

Milbemycin oxime [MBO] was tested, and the “Number of GA III Worms” value was 0 and the “Percentage of GA III Worms” value (po) was 0%.
